The values that follow come from US20240383924A1, “BENZOPYRIMIDINE COMPOUNDS AND USE THEREOF” (priority 2022, published 2024).

For data set [1], the target named is T1, KRAS^G12D (Homo sapiens (Human), UniProt P01116, G12D). Nature of the data set: SOS1-mediated binding of KRAS^G12D to effector protein c-Raf (TR-FRET). Type of data set: biochemical. The note with it: KRAS G12D/c-Raf/SOS1/GTP, read-out: IC50 Values of Compounds for KRAS^G12D Activity. How it is done: Assay example 1: Assay of SOS1-mediated binding ability of KRAS^G12D to effector protein c-Raf
2. Assay steps 2.1 Preparation of 1×enzymatic reaction buffer:
2.2 Preparation of KRAS G12D enzyme (2×):
2.3 Preparation of substrate and antibody mixture (2×):
1) The compounds were serially diluted 5-fold with DMSO in a dilution plate to a final starting concentration of 10 μM.
2) The compounds were transferred with Echo to a 384 reaction plate with […] per well.
3) 5 μL of KRAS G12D enzyme was added to each well of the reaction plate.
4) The plates were sealed with a sealing film and centrifuged at 1000 g for 30 seconds, and then incubated at room temperature for 15 minutes.
5) 2× cRaf/SOS1/GTP/MAb Anti 6HIS-d2/MAb Anti GST-Eu mixture was prepared with 1× enzyme reaction buffer, and 5 μL of the mixture was added to the reaction plate.
6) The mixture was centrifuged at 1000g for 30 seconds and reacted at room temperature for 2 hours.
7) The fluorescence signals at 615 nm (Cryptate) and 665 nm (XL665) were read with a BMG microplate reader.
8) Data analysis was performed using Graphpad 7.0 software to give IC50.
A general note: In TR-FRET formats the signal depends on donor and acceptor labels being close together.

Data set [2] has as its system phospho-ERK in GP2D cells. Nature of the data set: Inhibition of phospho-ERK in GP2D cells (Odyssey in-cell imaging). Type of data set: cell-based. The note with it: Homo sapiens, 1 hour compound, EGF stimulation, read-out: Inhibitory effects on intracellular phospho-ERK IC50. How it is done: Assay example 3. Inhibitory effect of compounds on phospho-ERK in GP2D cells
In this assay, the inhibitory effect of the assayed compounds on the phosphorylation of ERK protein downstream of the KRAS […] signaling pathway in human colon cancer GP2D cells was analyzed.
2. Reagents, consumables and instruments
3.Assay process 1. Cell culture
1) GP2D cells were cultured in a cell culture 75 flask at 37° C., 5% CO2, and the medium was DMEM medium (added with 10% FBS and 1% P/S).
2) After cultivation for 2 days, the medium was removed and the sterile PBS buffer was used to wash once.
3) 3 mL of trypsin was added and the cells were digested in a 37° C. incubator for 2 to 3 minutes until cells fell off.
4) 9 mL of fresh culture medium was added to neutralize the digestion; the cells were aspirated into a centrifuge tube and centrifuged at 1000 rpm at room temperature for 5 minutes.
5) The supernatant was removed, and 3 mL of fresh culture medium was added to resuspend the cells; the cells were counted by a cell counter.
1) 7000 cells per well were plated in a 384-cell culture plate with 40 μL of culture medium, and cultured overnight in a 37° C. and 5% CO2 incubator.
2) The Echo655 instrument was used to add 40 nL of serially diluted compounds (the initial concentration of the compound was 1000 nM, and the compound was serially diluted 3-fold. […]

Data set [3] is described as follows: Pharmacokinetic study in vivo in mice. The following applies: mouse, plasma, male C57BL/6J mice; for AUC(0-t): read-out: area under plasma concentration-time curve AUC0-last. How it is done:
Male C57BL/6J mice aged 7 to 10 weeks were selected, and administered candidate compound solutions intravenously or orally. Whole blood was collected for a certain period of time. Plasma was prepared. Drug concentration was analyzed by LC-MS/MS method. Pharmacokinetic parameters were calculated using Certara WinNonlin software (Certara Company, USA).

Data set [4] relates to KRAS^G12D mutated AsPC-1 cells. Nature of the data set: Anti-cell proliferation in tumor cell line AsPC-1 (CellTiter-Glo 3D). The data set is classed as cell-based. The following applies: Homo sapiens, ASPC1; AsPC-1, 120 hours, 3D culture; read-out: Anti-proliferation Activity against KRAS^G12D Mutated AsPC-1 Cells IC50. An excerpt: Assay example 2. Anti-cell proliferation effects of compounds in tumor cell line AsPC-1 1. Research purpose
In this assay, the inhibitory effects of compounds on cell proliferation were studied by detecting the effects of compounds on the in vitro cell activity in the tumor cell line AsPC-1.
Ultra Low Cluster-96 well plate (Corning-7007)
Greiner CELLSTAR 96-well plate (#655090)
Promega CellTiter-Glo 3D Luminescence Cell Viability Detection Kit (Promega-G9683)
2104-10 En Vision Plate Reader, PerkinElmer
RPMI 1640, DMEM, PBS (phosphate buffered solution), FBS (fetal bovine serum), Antibiotic-antimycotic, L-glutamine, DMSO (dimethyl sulfoxide)
3. Assay methods and steps Cell culture
The tumor cell line was cultured in a 37° C., 5% CO2 incubator according to the culture conditions indicated in the culture method. […]
Cells were stained with trypan blue and viable cells were counted. […]
CellTiter-Glo luminescence assay for cell viability detection (day 5)
The following steps were performed according to the instructions of the Promega CellTiter-Glo 3D Luminescence Cell Viability Dectection Kit (Promega #G9683). […]
The solution in the ULA culture plate was then transferred to a black bottom culture plate (#655090) and left at room temperature for 25 minutes to stabilize the luminescence signal.
Luminescence signals were detected with a 2104 EnVision plate reader. […]

Data set [5] has as its target T1, KRAS^G12D. Nature of the data set: Activity of inhibiting KRAS^G12D: binding of KRAS to GTP (TR-FRET, SOS/GTP exchange). The note with it: Bodipy GDP/SOS/GTP. The data set is classed as biochemical.

The structures appear in SMILES notation. Counter-ions that a name gives are not always drawn. Like-named read-outs stand apart in the source and are kept apart here.

T1 sequence (P01116-2 other isoform, or with tags, fused parts or gaps G12D): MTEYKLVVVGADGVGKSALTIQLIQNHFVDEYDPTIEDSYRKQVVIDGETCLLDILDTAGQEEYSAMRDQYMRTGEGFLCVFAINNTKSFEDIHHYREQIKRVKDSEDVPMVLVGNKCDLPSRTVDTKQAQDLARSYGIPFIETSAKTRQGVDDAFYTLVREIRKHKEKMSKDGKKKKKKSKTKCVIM

Turning to `C#Cc1c(F)ccc2cc(N)cc(-c3c(Cl)cc4c(N5CC6C=CC(C5)N6)nc(OC[C@@]56CCCN5C[C@H](F)C6)nc4c3F)c12` [Compound 001B], the IC50 on KRAS^G12D [1] came to 18.9 nM.
As usually defined, the clearance is a measure of how efficiently the substance is removed, as volume per time. For orientation: bioavailability means dose-corrected exposure relative to a reference, in per cent. The term Tmax denotes the time at which the peak concentration occurs. For the compound `C#Cc1c(F)ccc2cc(N)cc(-c3c(F)cc4c(N5CC6C=CC(C5)N6)nc(OC[C@@]56CCCN5C[C@H](F)C6)nc4c3F)c12` [Compound 002A], the IC50 in data set [2] turned out to be 0.15 nM; in data set [4], 17.7 nM; at KRAS^G12D [1] it was 23.7 nM. Besides, the Vd in data set [3] (intravenous administration, dose 1.74-1.94 mg/kg, read-out: apparent volume of distribution Vdss) was 56.3 L/kg. Besides, the AUC(0-t) in data set [3] (intravenous administration, dose 1.74-1.94 mg/kg) was 0.267 µM·h; in data set [3] (oral administration, dose 28.2-51.0 mg/kg), 0.637 µM·h. Besides, the clearance in data set [3] (intravenous administration, dose 1.74-1.94 mg/kg, read-out: clearance rate CL) was 189 mL/min/kg. Moreover, the half-life in data set [3] (intravenous administration, dose 1.74-1.94 mg/kg, read-out: half-life T1/2 (converted)) was 7.12 h. In addition, the bioavailability in data set [3] (oral administration, dose 28.2-51.0 mg/kg, read-out: bioavailability F) was found to be 16.1%. In addition, the Cmax in data set [3] (oral administration, dose 28.2-51.0 mg/kg, read-out: peak concentration Cmax) is 345 nM. For the same compound, in data set [3] (oral administration, dose 28.2-51.0 mg/kg, read-out: peak time Tmax), the Tmax was determined as 1.13 h.
As to `C#Cc1c(F)ccc2cc(N)cc(-c3ccc4c(N5CC6C=CC(C5)N6)nc(OC[C@@]56CCCN5C[C@H](F)C6)nc4c3F)c12` [Compound 003], the IC50 on KRAS^G12D [1] was found to be 20.4 nM.
Same read-out and setting: the same measure for `C#Cc1c(F)ccc2cc(O)cc(-c3ccc4c(N5CC6C=CC(C5)N6)nc(OC[C@@]56CCCN5C[C@H](F)C6)nc4c3F)c12` [Compound 005]: 12.3 nM; for `C#Cc1c(F)ccc2cc(N)cc(-c3cc(OC)c4c(N5CC6C=CC(C5)N6)nc(OC[C@@]56CCCN5C[C@H](F)C6)nc4c3F)c12` [Compound 006]: 37.4 nM.
Take `C#Cc1c(F)ccc2cc(N)cc(-c3c(F)cc4c(N5CC6C=CC(C5)N6)nc(OC[C@]56CCCN5CC(=C)C6)nc4c3F)c12` [Compound 016B]: in data set [4], the IC50 worked out at 14.2 nM.
On KRAS^G12D [5], `Oc1cc(-c2c(Cl)cc3c(N4C5CCC4CNC5)nc(OC[C@@]45CCCN4C[C@H](F)C5)nc3c2F)c2ccccc2c1` [Compound 029 hydrochloride] showed an IC50 of 38.6 nM.
